Data from patent US12551482B2, “Aurora kinase inhibitors” (The Regents of the University of California, priority 2013, dated 2026).
Like-named read-outs stand apart in the source and are kept apart here.

Legend:
[1] = tested on: MKN45; assay: Cancer cell line profiling, Genomics of Drug Sensitivity Project
[2] = tested on: RL95-2; assay: as above; conditions: Homo sapiens, RL95-2, read-out: CD532 EC50 (uM)
[3] = target: T1, Aurora A protein (Homo sapiens, UniProt O14965); assay: Dose response immunoblot for Aurora A protein in MYCN-amplified neuroblastoma cell lines; assay type: cell-based; conditions: across cell lines (FIGS. 1D and 7)
T1 construct: endogenous in cells; host or cells: SK-N-BE(2), SMS-KCN, Kelly neuroblastoma cells
T1 sequence (O14965 whole entry): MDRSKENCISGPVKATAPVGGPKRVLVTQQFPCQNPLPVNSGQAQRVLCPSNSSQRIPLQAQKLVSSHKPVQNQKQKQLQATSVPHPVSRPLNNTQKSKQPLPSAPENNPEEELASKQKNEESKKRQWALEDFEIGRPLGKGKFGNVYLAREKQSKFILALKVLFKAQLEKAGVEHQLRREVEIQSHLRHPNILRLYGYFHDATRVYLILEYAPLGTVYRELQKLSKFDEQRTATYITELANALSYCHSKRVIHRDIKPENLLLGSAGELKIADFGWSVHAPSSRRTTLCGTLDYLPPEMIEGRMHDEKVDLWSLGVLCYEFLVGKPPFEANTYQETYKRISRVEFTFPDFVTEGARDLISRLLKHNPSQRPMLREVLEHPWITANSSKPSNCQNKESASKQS
Procedure: Neuroblastoma tumor cell lines were obtained from the University of California San Francisco Cell Culture Facility (Kelly, SK-N-BE2, and SH-EP). SMS-KCN, SHEP MYCN^wt and MYCN^T58A/S62A cells were obtained. All cells were grown in RPMI with 10% FBS. Neuroblastoma cells were harvested and lysed with Cell Signaling Lysis buffer+1% SDS, sonicated and supernatants boiled in LDS sample buffer (Invitrogen). […] Western blot quantitation performed with ImageJ software.

[4] = tested on: SK-MEL-5; assay: Cancer cell line profiling, Genomics of Drug Sensitivity Project
[5] = tested on: BFTC-909; assay: as above; conditions: Homo sapiens, BFTC-909, read-out: CD532 EC50 (uM)
[6] = tested on: MEL-HO; assay: as above; conditions: read-out: CD532 EC50 (uM)
[7] = tested on: P-Histone H3 (S10); assay: Dose response immunoblot for phosphorylation of Histone H3 (S10) in MYCN-amplified neuroblastoma cell lines; assay type: cell-based; conditions: FIGS. 1D and 7
Procedure: (§1) Neuroblastoma tumor cell lines were obtained from the University of California San Francisco Cell Culture Facility (Kelly, SK-N-BE2, and SH-EP). SMS-KCN, SHEP MYCN^wt and MYCN^T58A/S62A cells were obtained. All cells were grown in RPMI with 10% FBS. Neuroblastoma cells were harvested and lysed with Cell Signaling Lysis buffer+1% SDS, sonicated and supernatants boiled in LDS sample buffer (Invitrogen). Western blots were performed as described previously (Chanthery et al., 2012), with primary antibodies to MYCN (ab24193, Abcam), Histone H3, P-Histone H3 (S10), Aurora A (Cell signaling), and GAPDH (Millipore). Western blot quantitation performed with ImageJ software.

[8] = tested on: MEL-JUSO; assay: Cancer cell line profiling, Genomics of Drug Sensitivity Project; conditions: Homo sapiens, read-out: CD532 EC50 (uM)
[9] = tested on: RPMI-7951; assay: as above
[10] = tested on: KON; assay: as above; conditions: read-out: CD532 EC50 (uM)
[11] = tested on: GT3TKB; assay: as above; conditions: read-out: CD532 EC50 (uM)
[12] = tested on: HO-1-u-1; assay: as above; conditions: read-out: CD532 EC50 (uM)
[13] = tested on: HTC-C3; assay: as above; conditions: Homo sapiens, HTC-C3, read-out: CD532 EC50 (uM)
[14] = tested on: MYCN; assay: MYCN protein by western blot in SK-N-BE(2) cells; assay type: cell-based
Procedure: as §1

[15] = tested on: IPC-298; assay: Cancer cell line profiling, Genomics of Drug Sensitivity Project; conditions: Homo sapiens, IPC-298, read-out: CD532 EC50 (uM)
[16] = tested on: SK-N-BE(2) MYCN-amplified neuroblastoma cells; assay: Viability at 72 hrs, CyQUANT assay; assay type: cell-based; conditions: Homo sapiens, SKNBE2, SK-N-BE(2) cells, FIG. 1E, read-out: cellular EC50 at 72 hrs
[17] = tested on: MYCN amplified neuroblastoma cells; assay: Cell cycle by flow cytometry; assay type: cell-based; conditions: 4 or 6 hrs of treatment
Procedure: Neuroblastoma cells were treated for the indicated time, trypsinized, washed, stained with Dylight 800 at 0.3 μg/mL (Pierce, 46421), fixed with 1.5% PFA, and permeabilized with 100% methanol. Cells were then stained with antibodies against p-MPM2 (Millipore, 16-155), p-pan-Aurora (Cell Signaling, 2914), MYCN (Thermo, PA5-17403), rabbit IgG (Invitrogen, A10542), or mouse IgG (BioLegend, 405307). Cells were stained with DAPI at 0.3 μg/mL (Invitrogen, D21490) and analyzed on the BD LSR II flow cytometer. For cell cycle analysis, cells were stimulated with EdU for 2 hours prior to harvest, then probed using the Click-iT EdU Flow Cytometry Assay Kit (Invitrogen, C10424). Cells were stained with propidium iodide (BD, 556547) and analyzed on the BD FACSCalibur flow cytometer. Data was gated using Cytobank. For viability studies, neuroblastoma cells were plated in 96-well plates at a density of 1,000 cells/well for SHEP or 4,000 cells/well for Kelly or SK—N-BE2 cells, then incubated with indicated concentrations of drug for 72 hours at 37° C. Plates were frozen at −80° C. to induce cell lysis. CyQUANT reagent mixture (Invitrogen, C7026) was added to thawed plates, then fluorescence was measured. Alternatively, resazurin (Sigma-Aldrich, R7017) was added directly to wells following drug treatment then incubated for 4 hours at 37° C. prior to measuring fluorescence. Data was analyzed using GraphPad Prism software.

[18] = tested on: KLE; assay: Cancer cell line profiling, Genomics of Drug Sensitivity Project; conditions: Homo sapiens, read-out: CD532 EC50 (uM)
[19] = tested on: Hs, 766T; assay: as above; conditions: Hs766T, read-out: CD532 EC50 (uM)
[20] = tested on: JHH-7; assay: as above; conditions: JHH7, read-out: CD532 EC50 (uM)
[21] = tested on: MYCN-expressing, SHH-subtype medulloblastoma allograft; assay: Medulloblastoma allograft in mice; assay type: in vivo
Procedure: Mice were injected intraperitoneally as described. For determining tumor volume, for example in medulloblastoma model mice, mice were euthanized once maximum tumor length exceeded 2.0 cm, per IACUC protocol (IACUC, Institutional Animal Care and Use Committee).

`O=C(Nc1ccc(Nc2nccc(Nc3cc(C4CCCC4)[nH]n3)n2)cc1)Nc1cccc(C(F)(F)F)c1` [CD532, 1-(4-((4-((5-cyclopentyl-1H-pyrazol-3-yl)amino)pyrimidin-2-yl)amino)phenyl)-3-(3-(trifluoromethyl)phenyl)urea] was tested, and the EC50 ([1]; Homo sapiens, MKN-45, read-out: CD532 EC50 (uM), MKN45 cell line, Stomach) was 0.456 µM, the EC50 ([1]; read-out: CD532 EC50, MKN45 cell line, Stomach) was 0.26 µM and the EC50 [2] was 0.335 µM. For the same compound, the “Aurora A protein level” value [3] was “downregulated Aurora A protein across cell lines (at higher concentrations)”, the EC50 ([4]; Homo sapiens, SK-MEL-5, read-out: CD532 EC50 (uM), SK-MEL-5 cell line, Skin) was 0.525 µM and the EC50 ([4]; read-out: CD532 EC50, SK-MEL-5 cell line, Skin) was 0.366 µM. For the same compound, the EC50 [5] was 1.51 µM, the EC50 [6] was 0.411 µM and the “phosphorylation of Histone H3 at S10, dose response” value [7] was “behaves similarly to MLN8237 with regard to Histone H3 phosphorylation”. The EC50 [8] was 0.783 µM, the EC50 ([9]; Homo sapiens, RPMI-7951, read-out: CD532 EC50 (uM), RPMI-7951 cell line, Skin) was 1.06 µM and the EC50 ([9]; read-out: CD532 EC50, RPMI-7951 cell line, Skin) was 0.952 µM. The EC50 [10] was 4.15 µM, the EC50 [11] was 1.05 µM and the EC50 [12] was 9.81 µM. For the same compound, the EC50 [13] was 0.915 µM, the “time dependence of MYCN protein loss” value ([14]; 1 μM, time course (FIG. 12A)) was “clear and time-dependent loss of MYCN protein” and the IC50 ([14]; FIG. 1D, read-out: IC50 for on-target MYCN knockdown) was ~0.25 µM. For the same compound, the EC50 [15] was 0.574 µM, the EC50 [16] was 0.223 µM and the cell cycle effect [17] was “potent loss of S-phase entry”. It also gave an EC50 [18] of 2.99 µM, an EC50 [19] of 2.45 µM and an EC50 [20] of 0.766 µM. For the same compound, the overall survival ([21]; 25 mg/kg b.i.w. vs vehicle) was “statistical significant increase in overall survival” and the “tumor growth (tumor size over time)” value ([21]; 25 mg/kg b.i.w., intraperitoneal injection) was “inhibits growth”.
